Assay results as given in patent publication US20230302164A1, “PSMA-Targeting Ligands With Optimal Properties for Imaging and Therapy” (Wisconsin Alumni Research Foundation, priority 2021, published 2023).
Read-outs that look alike come from different tables or passages of the source. One block for each compound: values may come before it.

Columns and labels:
[1] = Partition (logP) and distribution (logD) coefficients, hydrophobicity comparison; type: physicochemical; conditions: for LogD: distribution coefficient; for LogD / LogP: 177Lu-labeled compound; for LogP: partition coefficient
PC3-PIP tumor xenografts [2] = test: PET/CT imaging and region of interest analysis in nude mice bearing PC3-PIP tumor xenografts; type: in vivo
Experimental: Next, PET/CT imaging studies were performed in nude mice bearing PC3-PIP tumor xenografts ([…] tumors) injected intravenously with ^86Y-PSMA-617, ^86Y-PSMA-C12, or ^86Y-PSMA-PhC18 and scanned up to 72 h post injection.
A region of interest analysis was then performed on the PC3-PIP tumor xenografts injected intravenously with ^86Y-PSMA-617, ^86Y-PSMA-C12, or ^86Y-PSMA-PhC18 and scanned up to 72 h post injection.

[3] = PET/CT imaging in normal ICR mice, blood kinetics by region of interest analysis of the heart; type: in vivo; conditions: i.v., PET days 0-2
Experimental: Compounds PSMA-C12 and PSMA-PhC18 were dissolved in water at a concentration of 1-2 mg/mL. Radiolabeling with Y-86 was carried out in NaOAc buffer (pH 5.0) at 90-95 C for 30 min to 1 h at constant stirring. Ten micrograms of compound per mCi of ^86Y were employed, affording quantitative radiochemical yields. Purification of the compounds was carried out using reverse-phase solid-phase chromatography and purified compounds were redissolved in physiological injection media (e.g., normal saline). Quality control was conducted using reverse-phase HPLC.
In PET/CT imaging studies, 100-250 µCi of ^86Y-PSMA-C12 and ^86Y-PSMA-PhC18 were intravenously administered into normal ICR mice, and mice were scanned on days 0, 1, and 2 after injection. The results are shown in FIG. 1 (for ^86Y-PSMA-C12) and in FIG. 2 (for ^86Y-PSMA-PhC18). Blood circulation kinetics were analyzed through a region of interest analysis of the heart.
To our knowledge, ^86Y-PSMA-PhC18 is the only PSMA inhibitor showing long circulation without albumin binding, and that has predominantly hepatic excretion. These features have clear advantages over other previously known PSMA ligands for prostate cancer theranostics.

PC3-PIP tumor xenografts [4] = test: Ex vivo biodistribution in PC3-PIP mice after last imaging timepoint; conditions: 24 h p.i. (617, C12) or 72 h p.i. (PhC18)
Experimental: Next, an ex vivo biodistribution analysis was performed following the last imaging timepoint at 24 h p.i. for PC3-PIP mice injected intravenously with ^86Y-PSMA-617 and ^86Y-PSMA-C12 and at 72 h p.i. in mice administered ^86Y-PSMA-PhC18.

[5] = system: LNCap tumor xenografts with lower PSMA expression; test: PET/CT imaging and region of interest analysis in nude mice bearing LNCap tumor xenografts; type: in vivo
Experimental: Next, PET/CT imaging studies were performed in nude mice bearing LNCap tumor xenografts with lower PSMA expression. The mice were injected intravenously with ^86Y-PSMA-617, ^86Y-PSMA-C12, or ^86Y-PSMA-PhC18 and scanned up to 72 h p.i. […] Finally, a region of interest analysis was then performed on the PET/CT images in nude mice bearing LNCap tumor xenografts injected intravenously with ^86Y-PSMA-617, ^86Y-PSMA-C12, or ^86Y-PSMA-PhC18 and scanned up to 72 h post injection.

[6] = molecular target: T1, PSMA (LNCap cells, PSMA positive) (Homo sapiens, UniProt Q04609); test: Competitive binding assay in LNCap cells using 86Y as a radioligand; conditions: 86Y radioligand, read-out: half inhibition concentration (IC50)
T1 construct: endogenous in cells; host or cells: LNCap cells (human prostate adenocarcinoma)
Experimental: Competitive binding assays were performed in LNCap cells (PSMA positive, androgen-sensitive human prostate adenocarcinoma cells) using ^86Y as a radioligand.

[7] = nude mice, i.v., scanned up to 72 h
[8] = nude mice, region of interest analysis

T1 sequence (Q04609 whole entry): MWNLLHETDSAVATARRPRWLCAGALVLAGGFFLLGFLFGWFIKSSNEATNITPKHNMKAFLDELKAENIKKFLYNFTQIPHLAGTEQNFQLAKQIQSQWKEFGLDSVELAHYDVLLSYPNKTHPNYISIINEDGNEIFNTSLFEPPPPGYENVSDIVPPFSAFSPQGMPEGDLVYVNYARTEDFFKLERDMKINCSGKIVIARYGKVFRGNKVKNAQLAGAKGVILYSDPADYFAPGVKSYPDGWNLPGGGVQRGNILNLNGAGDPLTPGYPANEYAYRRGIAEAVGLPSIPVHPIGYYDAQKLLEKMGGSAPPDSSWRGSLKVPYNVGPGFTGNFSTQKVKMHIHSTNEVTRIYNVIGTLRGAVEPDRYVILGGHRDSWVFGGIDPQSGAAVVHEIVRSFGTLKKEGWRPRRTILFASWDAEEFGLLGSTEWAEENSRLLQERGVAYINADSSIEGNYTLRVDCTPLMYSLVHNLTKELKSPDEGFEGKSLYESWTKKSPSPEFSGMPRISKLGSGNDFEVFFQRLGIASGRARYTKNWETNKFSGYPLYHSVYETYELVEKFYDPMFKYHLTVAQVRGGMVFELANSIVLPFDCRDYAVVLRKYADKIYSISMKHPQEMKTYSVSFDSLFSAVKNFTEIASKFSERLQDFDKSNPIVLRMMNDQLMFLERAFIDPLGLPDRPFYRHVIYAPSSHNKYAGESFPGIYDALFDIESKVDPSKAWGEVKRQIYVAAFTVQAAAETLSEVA

LogD ([1]; read-out: LogD): -2.9 | LogP ([1]; read-out: LogP): -2.6
SMILES: O=C(O)CCC(NC(=O)NC(CCCCNC(=O)CCCCCCCCCCCNC(=O)CN1CCN(CC(=O)O)CCN(CC(=O)O)CCN(CC(=O)O)CC1)C(=O)O)C(=O)O (stereo not drawn) [^177Lu-PSMA-C12, metal not drawn]

SMILES: O=C([O-])CN1CCN(CC(=O)[O-])CCN(CC(=O)NCC2CCC(C(=O)N[C@@H](Cc3ccc4ccccc4c3)C(=O)NCCCC[C@H](NC(=O)N[C@@H](CCC(=O)O)C(=O)O)C(=O)O)CC2)CCN(CC(=O)[O-])CC1.[177Lu+3] (stereo partly drawn) [^177Lu-PSMA-617, reference compound]
LogD [1]: -3.2 | LogP [1]: -2.8

tumor uptake and retention versus 86Y-PSMA-617 and 86Y-PSMA-C12 (PC3-PIP tumor xenografts [2]; nude mice, i.v., PET/CT): significantly improved | blood circulation (PC3-PIP tumor xenografts [2]; [7]): prolonged blood circulation | renal clearance (PC3-PIP tumor xenografts [2]; [7]): minimal renal clearance | blood circulation half-life (PC3-PIP tumor xenografts [2]; [8]): 11.7 h | blood circulation half-life (unit not given) (PC3-PIP tumor xenografts [2]; nude mice, region of interest analysis, FIG. 5 legend): 11.7 h | time at which tumor uptake plateaus (PC3-PIP tumor xenografts [2]; post injection): 24 h | blood circulation [3]: prolonged circulation | excretion route [3]: hepatobiliary excretion | clearance from normal organs ([5]; nude mice): Steady clearance from normal organs | tumor uptake and retention versus 86Y-PSMA-617 ([5]; nude mice, PET/CT): significantly improved | blood circulation [5, 7]: prolonged blood circulation | renal clearance [5, 7]: minimal renal clearance | blood circulation half-life [5, 8]: 15.1 h | time at which tumor uptake plateaued ([5]; p.i.): 24 h | tumor uptake at 72 h p.i. relative to 86Y-PSMA-617 and 86Y-PSMA-C12 at 24 h p.i. ([5]; region of interest analysis): five times higher
SMILES: O=C(O)CCC(NC(=O)NC(CCCCNC(=O)CCCCCCCCCCCCCCCCCc1ccc(NC(=O)CN2CCN(CC(=O)O)CCN(CC(=O)O)CCN(CC(=O)O)CC2)cc1)C(=O)O)C(=O)O (stereo not drawn) [^86Y-PSMA-PhC18, metal not drawn]
tissue with highest uptake in ex vivo biodistribution (PC3-PIP tumor xenografts [4]): the tumor shows the highest uptake of all analysed tissues

hydrophobicity comparison ([1]; 177Lu-labeled compounds compared with each other): two orders of magnitude more hydrophobic | LogD [1]: -1.2 | LogP [1]: -0.8
SMILES: O=C(O)CCC(NC(=O)NC(CCCCNC(=O)CCCCCCCCCCCCCCCCCc1ccc(NC(=O)CN2CCN(CC(=O)O)CCN(CC(=O)O)CCN(CC(=O)O)CC2)cc1)C(=O)O)C(=O)O (stereo not drawn) [^177Lu-PSMA-PhC18, metal not drawn]

IC50 [6]: 58.2 nM | blood circulation [3]: short circulation half-life | excretion route [3]: renal excretion
SMILES: O=C(O)CCC(NC(=O)NC(CCCCNC(=O)CCCCCCCCCCCNC(=O)CN1CCN(CC(=O)O)CCN(CC(=O)O)CCN(CC(=O)O)CC1)C(=O)O)C(=O)O (stereo not drawn) [^86Y-PSMA-C12, metal not drawn]
tissue with highest uptake in ex vivo biodistribution (PC3-PIP tumor xenografts [4]): the tumor shows the highest uptake of all analysed tissues
